Measurements from US11718628B2, “SREBP inhibitors comprising a 6-membered central ring” (Capulus Therapeutics, LLC, priority 2018, dated 2023).
Values after ≈ are worked out from the molar mass of the structure shown.

Tests used:
[1] = tested on: SREBP; test: Reporter screening assay (SRE-luciferase reporter construct); type: cell-based; settings: Homo sapiens; SREBPv1 reporter cell line HepG2, 24 hours, 0.01 uM to 10 uM; read-out: Reporter Screening IC50 (nM) Activity Range
Procedure: This assay was used to evaluate the effect on transcriptional activity SREBP of the compounds synthesized according to Examples 1-16, 20, and 22, using an SRE-luciferase reporter construct. On day 1, 10,000 cells were seeded in a 96 well (white) plate as per the plate map in Growth media without antibiotics. Cells were incubated at 37° C. for 8 hours. After 8 hours, cells were washed with DPBS for complete removal of FBS. DPBS was completely removed and Growth media was replaced with phenol free treatment medium (90 μl) with different FBS concentrations. The cells were then incubated at 37° C. for 24 hours with varying doses (0.01 uM to 10 uM) of compounds. Then a Luciferase assay was performed.
Reagents for performing Luciferase assay were stored at −20° C. To a tube of lyophilized assay substrate was added 1 mL Substrate Solvent and mixed well. The Substrate tube after reconstitution was covered with aluminum foil so as to keep it protected from light. The assay buffer was thawed to room temperature. To 20 mL Assay Buffer was added 200 μL of reconstituted 100× Substrate and mixed well. The reconstituted substrate as well as the assay solution (buffer+substrate) was protected from light throughout the procedure by keeping it covered with aluminum foil.
Using a multi-channel pipette, 100 μL Assay Solution (buffer+substrate) was added directly to each sample well in Plate 1, which was incubated for 30 min (plate was covered with aluminum foil). After 30 min incubation, the plate was read for total luminescence. Each well was read for 2 seconds in a plate luminometer. (Microplate reader Envision Microplate reader from Perkin Elmer). Precaution was taken to incubate plate exactly for 30 min prior to reading on the plate reader.
Materials: SREBPv1 Reporter cell line: HepG2—#32251. Growth Medium: MEM (Corning 10-010), 10% FBS, 1% GlutaMax (Invitrogen Catalog #35050061), […] (Invitrogen Catalog #A1113803) and 1% Penicillin-Streptomycin (Pen-Strep). Treatment Media: Phenol-free MEM (Invitrogen Catalog #51200-038) and 1% GlutaMax (Invitrogen Catalog #35050061). Luciferase Assay: LightSwitch Luciferase Assay Kit (Catalog #32032). LDH assay: Pierce LDH Cytotoxicity Assay Kit (Catalog #SD249616).

[2] = Half-life in human liver microsomes; type: in vitro ADME; settings: NADPH, 37° C.; for half-life at 1 µM: human, liver microsomes, read-out: G: half-life human liver microsomes
Procedure: (§1) Half-life Human Microsomes: Compounds were evaluated for stability in human liver microsomes. A 10 mM stock solution of the compound being evaluated was prepared in DMSO and diluted with water:acetonitrile (1:1) to a concentration of 1 mM. A working concentration of 100 μM was prepared by further dilution with water:acetonitrile (1:1). To make the preincubation mixture, 2.5 μL of the diluted compound was combined with 75 μL of human liver microsomes at 3.33 mg/mL, and 85 μL of 100 mM potassium phosphate buffer, and this mixture was pre-incubated for 10 min at 37° C. To make the 60 minute mixture without cofactor, 32.5 μL of the preincubation mixture was combined with 17.5 μL of 100 mM potassium phosphate buffer and incubated for 60 min at 37° C. To make the 0 min sample with cofactor (NADPH), 16.25 μL of the preincubation mixture was combined with 200 μL of acetonitrile containing internal standard and 8.75 μL of cofactor (NADPH). To make the incubation mixture, 62 μL of cofactor (2.85 mM) was combined with the remaining incubation mixture, and incubated for 60 min at 37° C. To prepare the sample mixture to be evaluated, 25 μL incubation mixture was combined with 200 μL of acetonitrile containing internal standard and vortexed for 5 min at 1200 rpm, then centrifuged for 10 min at 4000 rpm. The supernatant was diluted 2 fold with water and injected on LC-MS/MS. The sample mixture was evaluated by LC-MS/MS using 10 mM ammonium acetate with 0.1% FA as the aqueous mobile phase, and methanol as the organic mobile phase.

[3] = Half-life in mouse liver microsomes; type: in vitro ADME; settings: for half-life at 1 µM: mouse, liver microsomes, read-out: H: half-life of mouse liver microsomes
Procedure: as §1
Half-life Mouse Microsomes: Compounds were evaluated in mouse liver microsomes following a similar procedure as described above for human liver microsomes. A similar procedure could be used to evaluate compounds in rat liver microsomes.

[4] = Kinetic solubility; type: physicochemical; settings: pH 7.4 buffer, room temperature, 1.0% DMSO; for solubility kinetic at 24 h: aqueous buffer, kinetic from dmso stock, read-out: I: kinetic solubility class
Procedure: Kinetic Solubility Procedure: A 10 mM stock solution of a compound was prepared in DMSO, then 4 μL of the stock was added to a deep well plate containing 396 μL of pH 7.4 buffer. The sample plate was vortexed at 800 rpm for 24 h on thermomixer at room temperature. The plate was sealed well during the incubation process. The DMSO content in the sample was 1.0%. The concentration of the evaluated compound in the final incubation was 100 μM. At the end of the incubation period, the sample plate was centrifuged at 4000 rpm for 10 min and analyzed in LC-UV against a calibration curve (CC). Values <10 μg/mL=Low; 10 to 60 μg/mL=Medium; >60 μg/mL=High.

[5] = In vivo pharmacokinetic properties in rats (IV and PO); design: species or system male Sprague Dawley rats
Procedure: (§2) The in vivo pharmacokinetic properties of compounds by both intravenous and oral administration were evaluated in male Sprague Dawley rats or C57BL/6J mice.
(§3) Animals were housed in cages with clean bedding. Certified rodent diet was provided. Water was available ad libitum. Environmental controls for the animal room were set to maintain a temperature of 22° C. to 25° C., humidity of 40-70% RH, and a 12-hour light/12-hour dark cycle. Normal healthy animals certified by the attending veterinarian were selected and acclimatized for minimum three days prior to initiation of study.
Surgical Procedure for Jugular Vein Cannulation of Rats: Rats were anaesthetized with a single dose of ketamine 50 mg/kg i.p.+xylazine 6 mg/kg i.p. The right jugular vein was exposed, a loose ligature was placed caudally, and the cranial end of vein was ligated. A small incision was made between the ligatures into which the catheter (polyethylene 50 tubing of internal diameter 0.58 mm and outer diameter 0.96 mm) was inserted. The catheter was secured in place by tying the loose ligature around the catheterized vessel. A small incision was made in the scapular region to serve as the exit site of the catheter. The catheter was subcutaneously tunneled and exteriorized through scapular incision. A stay suture was placed in the scapular area. Patency was tested, and catheter was filled with a locking solution (heparinized saline) and sealed with a stainless steel plug. The incision was then sutured with sterile suturing material. Anti-septic solution was applied to the sutured site and animal was placed back in the home cage.
(§4) To evaluate pharmacokinetic properties of intravenous delivery, male Sprague Dawley rats were administered 2.00 mg compound/kg animal weight through the tail vein. The concentration of the compound in the plasma of the animals was evaluated at 0.083, 0.25, 0.5, 1, 2, 4, 8, 12 and 24 hr by taking blood samples from the cannulated jugular vein. For the C5Bl/6J mice, blood samples were collected through a capillary, guided in retro-orbital plexus.
To evaluate pharmacokinetic properties of oral delivery, rats (male Sprague Dawley rats) or mice (C5Bl/6J) were administered 10 mg compound/kg animal weight by mouth. The concentration of compound in the plasma of the animals was evaluated at 0.25, 0.5, 1, 2, 4, 6, 8, 12 and 24 hr by taking blood samples from the cannulated jugular vein (rats) or through a capillary, guided in retro-orbital plexus (mice).

[6] = In vivo pharmacokinetic properties in mice (IV and PO); design: species or system C57BL/6J mice; settings: mice
Procedure: as §2, §3, §4
[…] The concentration of compound in the plasma of the animals was evaluated at 0.25, 0.5, 1, 2, 4, 6, 8, 12 and 24 hr by taking blood samples from the cannulated jugular vein (rats) or through a capillary, guided in retro-orbital plexus (mice).

| IC50 [1] | half-life at 1 µM [2] | half-life at 1 µM [3] | solubility kinetic at 24 h [4] | Compound | other results |
| --- | --- | --- | --- | --- | --- |
| ≤ 1000 nM | – | – | – | CC(C)(C)c1cc(-c2cc(-c3ccc(C(=O)N4CCC(O)CC4)cc3Cl)ccn2)ccn1 [Compound 1, (4-(2′-(tert-butyl)-[2,4′-bipyridin]-4-yl)-3-chlorophenyl)(4-hydroxypiperidin-1-yl)methanone] | – |
| ≤ 500 nM | – | – | – | CC(C)(C)c1cc(-c2ccnc(-c3ccc(C(=O)N4CCC(O)CC4)cc3Cl)c2)ccn1 [Compound 2, (4-(2′-(tert-butyl)-[4,4′-bipyridin]-2-yl)-3-chlorophenyl)(4-hydroxypiperidin-1-yl)methanone] | – |
| ≤ 1000 nM | – | – | – | CC(C)(C)c1cc(-c2ccnc(-c3ccc(C(=O)N4CCC(O)CC4)cc3Cl)n2)ccn1 [Compound 6, (4-(4-(2-(tert-butyl)pyridin-4-yl)pyrimidin-2-yl)-3-chlorophenyl)(4-hydroxypiperidin-1-yl)methanone] | – |
| ≤ 1000 nM | – | – | – | CC(C)(C)c1cc(-c2cc(-c3ccc(C(=O)N4CCC(O)CC4)cc3Cl)ncn2)ccn1 [Compound 8, (4-(6-(2-(tert-butyl)pyridin-4-yl)pyrimidin-4-yl)-3-chlorophenyl)(4-hydroxypiperidin-1-yl)methanone] | – |
| – | 2.02 min | 8.98 min | 10 to 60 µg/mL (≈ 21.6 to 129 µM) | COC1CCCN(C(=O)c2ccc(-c3cncc(-c4ccnc(C(C)(C)C)c4)c3)c(Cl)c2)C1 (stereo not drawn) [drawing 375] | – |
| – | 20.3 min | 68.2 min | 10 to 60 µg/mL (≈ 22.2 to 133 µM) | CC(C)(C)c1cc(-c2cc(-c3ccc(C(=O)N4CCC(O)CC4)cc3Cl)ncn2)ccn1 [drawing 376] | – |
| – | 61.2 min | 80.1 min | 10 to 60 µg/mL (≈ 22.2 to 133 µM) | CC(C)(C)c1cc(-c2cncc(-c3ccc(C(=O)N4CCC(O)CC4)cc3Cl)c2)ccn1 [drawing 378] | – |
| – | 21.8 min | 66.5 min | 10 to 60 µg/mL (≈ 21.5 to 129 µM) | CC(C)(C)c1cc(-c2cncc(-c3ccc(C(=O)N4CCC(O)C(O)C4)cc3Cl)c2)ccn1 (stereo not drawn) [drawing 419] | – |

Second part, the compound before the results:

| Compound | IC50 [1] | half-life at 1 µM [2] | half-life at 1 µM [3] | solubility kinetic at 24 h [4] | other results |
| --- | --- | --- | --- | --- | --- |
| CC(C)(C)c1cc(-c2cccc(-c3ccc(C(=O)N4CCC(O)CC4)cc3Cl)n2)ccn1 [Compound 3, (4-(2′-(tert-butyl)-[2,4′-bipyridin]-6-yl)-3-chlorophenyl)(4-hydroxypiperidin-1-yl)methanone] | ≤ 1000 nM | – | – | – | – |
| CC(C)(C)c1cc(-c2cncc(-c3ccc(C(=O)N4CCC(O)CC4)cc3Cl)c2)ccn1 [Compound 4, (4-(2′-(tert-butyl)-[3,4′-bipyridin]-5-yl)-3-chlorophenyl)(4-hydroxypiperidin-1-yl)methanone] | ≤ 100 nM | – | – | – | – |
| CC(C)(C)c1cc(-c2cccc(-c3ccc(C(=O)N4CCC(O)CC4)cc3Cl)c2)ccn1 [Compound 5, (3′-(2-(tert-butyl)pyridin-4-yl)-2-chloro-[1,1′-biphenyl]-4-yl)(4-hydroxypiperidin-1-yl)methanone] | ≤ 100 nM | – | – | – | – |
| CC(C)(C)c1cc(-c2nccc(-c3ccc(C(=O)N4CCC(O)CC4)cc3Cl)n2)ccn1 [Compound 7, (4-(2-(2-(tert-butyl)pyridin-4-yl)pyrimidin-4-yl)-3-chlorophenyl)(4-hydroxypiperidin-1-yl)methanone] | ≤ 1000 nM | – | – | – | – |
| CC(C)(C)c1cc(-c2cncc(-c3ccc(C(=O)N4CCC(O)CC4)cc3Cl)n2)ccn1 [Compound 9, (4-(6-(2-(tert-butyl)pyridin-4-yl)pyrazin-2-yl)-3-chlorophenyl)(4-hydroxypiperidin-1-yl)methanone] | ≤ 1000 nM | – | – | – | – |
| CC(C)(C)c1cc(-c2cccc(-c3ccc(C(=O)N4CCC(O)CC4)cc3Cl)c2)ccn1 [drawing 377] | – | 46.5 min | 89.9 min | < 10 µg/mL | – |
| CC(C)(C)c1cc(-c2cncc(-c3ccc(C(=O)N4CCC(O)C(O)C4)cc3Cl)c2)ccn1 (stereo not drawn) [drawing 423] | – | – | – | – | G: half-life human liver microsomes [2]: 21.4 min; H: half-life of mouse liver microsomes [3]: 56.5 min; I: kinetic solubility class ([4]; 24 h): MEDIUM (10 to 60 μg/mL=Medium) |
| N-(4-(2′-(tert-butyl)-[3,4′-bipyridin]-5-yl)-3-chlorophenyl)-isopropylsulfamoyl urea [Compound Z-812] | – | – | – | – | Intravenous Delivery (IV) CL ([5]; IV, 2 mg/kg): 53.5 mL/min/kg; Intravenous Delivery (IV) T1/2 ([5]; IV, 2 mg/kg): 112 min; Intravenous Delivery (IV) Vd ([5]; IV, 2 mg/kg): 8.65 L/kg; % F (Bioavailability of oral delivery) ([5]; PO 10 mg/kg vs IV 2 mg/kg): 0.65%; Oral Administration (PO) AUC0-last ([5]; PO, 10 mg/kg): 18 ng·h/mL; Oral Administration (PO) T1/2 ([5]; PO, 10 mg/kg): 81 min; Oral Administration (PO) Tmax ([5]; PO, 10 mg/kg): 19.8 min; Intravenous Delivery (IV) AUC0-last ([6]; IV, 2 mg/kg): 1150 ng·h/mL; Intravenous Delivery (IV) CL ([6]; IV, 2 mg/kg): 28.6 mL/min/kg; Intravenous Delivery (IV) T1/2 ([6]; IV, 2 mg/kg): 67.2 min; Intravenous Delivery (IV) Vd ([6]; IV, 2 mg/kg): 2.78 L/kg; % F (Bioavailability of oral delivery) ([6]; PO 10 mg/kg vs IV 2 mg/kg): 52%; Oral Administration (PO) AUC0-last ([6]; PO, 10 mg/kg): 3000 ng·h/mL; Oral Administration (PO) T1/2 ([6]; PO, 10 mg/kg): 253 min; Oral Administration (PO) Tmax ([6]; PO, 10 mg/kg): 15 min |
